Here are results for eleven compounds from ChEMBL document CHEMBL5291721, “A preclinical secondary pharmacology resource illuminates target-adverse drug reaction associations of marketed drugs” (Nat Commun, 2023).

“And” between values parts separate entries of the source, which are not always exact repeats. Identical values can stand only once.

One assay deals with T1, B2 bradykinin receptor (Homo sapiens, UniProt P30411).
T1 sequence (P30411 whole entry): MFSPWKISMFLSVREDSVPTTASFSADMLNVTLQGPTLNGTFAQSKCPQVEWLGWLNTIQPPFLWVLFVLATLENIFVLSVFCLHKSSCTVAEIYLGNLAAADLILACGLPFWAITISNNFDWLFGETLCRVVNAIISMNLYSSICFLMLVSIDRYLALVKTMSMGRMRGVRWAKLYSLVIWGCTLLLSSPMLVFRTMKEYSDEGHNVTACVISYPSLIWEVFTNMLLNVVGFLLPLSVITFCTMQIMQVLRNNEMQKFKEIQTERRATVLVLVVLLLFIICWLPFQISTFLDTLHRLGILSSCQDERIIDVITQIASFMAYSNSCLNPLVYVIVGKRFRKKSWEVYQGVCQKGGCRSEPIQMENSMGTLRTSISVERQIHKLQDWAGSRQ

For assay [1], the target named is Beta-3 adrenergic receptor (Homo sapiens, UniProt P13945).
Beta-3 adrenergic receptor, sequence (P13945 whole entry): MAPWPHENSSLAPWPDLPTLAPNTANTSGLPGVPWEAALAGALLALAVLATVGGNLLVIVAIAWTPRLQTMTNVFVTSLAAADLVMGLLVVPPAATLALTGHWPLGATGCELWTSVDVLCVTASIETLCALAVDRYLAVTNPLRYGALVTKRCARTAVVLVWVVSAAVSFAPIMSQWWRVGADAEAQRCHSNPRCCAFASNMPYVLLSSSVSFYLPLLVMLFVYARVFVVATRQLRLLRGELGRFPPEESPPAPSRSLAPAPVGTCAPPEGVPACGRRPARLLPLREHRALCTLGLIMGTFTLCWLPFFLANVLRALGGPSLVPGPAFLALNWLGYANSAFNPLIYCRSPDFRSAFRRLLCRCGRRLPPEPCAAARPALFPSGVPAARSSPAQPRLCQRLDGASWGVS
In assay [2] the target is T2, Gastric inhibitory polypeptide receptor (Homo sapiens, UniProt P48546).
T2 sequence (P48546 whole entry): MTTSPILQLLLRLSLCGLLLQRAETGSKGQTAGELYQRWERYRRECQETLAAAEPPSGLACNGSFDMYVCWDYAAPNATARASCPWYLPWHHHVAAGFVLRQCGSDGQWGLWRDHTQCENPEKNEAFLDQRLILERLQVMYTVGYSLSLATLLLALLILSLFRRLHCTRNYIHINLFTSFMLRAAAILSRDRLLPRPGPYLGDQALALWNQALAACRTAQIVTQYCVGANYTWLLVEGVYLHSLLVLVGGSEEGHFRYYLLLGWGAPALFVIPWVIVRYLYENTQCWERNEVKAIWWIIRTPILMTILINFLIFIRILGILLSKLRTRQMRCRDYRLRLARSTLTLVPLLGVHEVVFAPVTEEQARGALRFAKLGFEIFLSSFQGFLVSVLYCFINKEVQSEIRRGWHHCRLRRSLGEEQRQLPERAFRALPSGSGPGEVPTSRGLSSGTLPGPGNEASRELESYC

Assay [3] deals with T3, 5-hydroxytryptamine receptor 2B (Homo sapiens, UniProt P41595).
T3 sequence (P41595 whole entry): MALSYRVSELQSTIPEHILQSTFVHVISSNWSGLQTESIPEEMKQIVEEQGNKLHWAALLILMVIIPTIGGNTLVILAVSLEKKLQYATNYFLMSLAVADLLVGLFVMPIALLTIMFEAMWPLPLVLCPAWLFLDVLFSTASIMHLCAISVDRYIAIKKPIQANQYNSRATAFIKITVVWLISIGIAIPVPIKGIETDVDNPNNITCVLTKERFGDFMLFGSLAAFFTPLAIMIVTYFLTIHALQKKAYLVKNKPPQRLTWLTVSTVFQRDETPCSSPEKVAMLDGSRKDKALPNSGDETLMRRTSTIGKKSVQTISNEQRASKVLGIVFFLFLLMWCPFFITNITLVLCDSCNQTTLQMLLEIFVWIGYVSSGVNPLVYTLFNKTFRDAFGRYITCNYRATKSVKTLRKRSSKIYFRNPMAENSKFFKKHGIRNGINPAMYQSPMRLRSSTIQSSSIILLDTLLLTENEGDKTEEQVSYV
Assay [4] has as its target T4, Equilibrative nucleoside transporter 1 (Homo sapiens, UniProt Q99808).
T4 sequence (Q99808 whole entry): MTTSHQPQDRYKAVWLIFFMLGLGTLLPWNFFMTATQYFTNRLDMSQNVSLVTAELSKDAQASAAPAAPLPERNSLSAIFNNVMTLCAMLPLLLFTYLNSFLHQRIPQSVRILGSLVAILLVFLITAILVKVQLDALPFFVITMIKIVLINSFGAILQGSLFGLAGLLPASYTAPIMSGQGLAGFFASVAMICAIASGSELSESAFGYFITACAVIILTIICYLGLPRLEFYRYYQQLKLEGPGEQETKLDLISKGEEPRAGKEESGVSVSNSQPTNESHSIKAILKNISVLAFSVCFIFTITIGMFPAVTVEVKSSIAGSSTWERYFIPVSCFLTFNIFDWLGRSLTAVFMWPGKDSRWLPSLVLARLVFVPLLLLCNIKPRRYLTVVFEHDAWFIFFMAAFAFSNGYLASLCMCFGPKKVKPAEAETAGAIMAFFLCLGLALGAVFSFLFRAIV

In assay [5] the target is T3, 5-hydroxytryptamine receptor 2B. Type of assay: functional, cell-based.
The target in assay [6] is T5, Alpha-1A adrenergic receptor (Homo sapiens, UniProt P35348).
T5 sequence (P35348 whole entry): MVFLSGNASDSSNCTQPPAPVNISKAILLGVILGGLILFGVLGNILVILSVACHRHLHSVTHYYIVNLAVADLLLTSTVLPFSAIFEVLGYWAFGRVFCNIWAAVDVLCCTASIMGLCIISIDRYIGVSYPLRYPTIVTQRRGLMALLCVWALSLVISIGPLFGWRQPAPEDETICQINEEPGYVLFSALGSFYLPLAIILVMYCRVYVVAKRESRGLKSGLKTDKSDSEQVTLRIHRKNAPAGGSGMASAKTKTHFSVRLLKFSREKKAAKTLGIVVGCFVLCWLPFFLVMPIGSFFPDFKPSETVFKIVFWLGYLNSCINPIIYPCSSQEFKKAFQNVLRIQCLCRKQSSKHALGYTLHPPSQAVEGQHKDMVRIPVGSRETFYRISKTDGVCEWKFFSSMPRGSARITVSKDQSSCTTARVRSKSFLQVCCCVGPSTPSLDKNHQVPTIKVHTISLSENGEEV
Type of assay: functional, cell-based.

Another assay addresses T6, Estrogen receptor (Homo sapiens, UniProt P03372).
T6 sequence (P03372 whole entry): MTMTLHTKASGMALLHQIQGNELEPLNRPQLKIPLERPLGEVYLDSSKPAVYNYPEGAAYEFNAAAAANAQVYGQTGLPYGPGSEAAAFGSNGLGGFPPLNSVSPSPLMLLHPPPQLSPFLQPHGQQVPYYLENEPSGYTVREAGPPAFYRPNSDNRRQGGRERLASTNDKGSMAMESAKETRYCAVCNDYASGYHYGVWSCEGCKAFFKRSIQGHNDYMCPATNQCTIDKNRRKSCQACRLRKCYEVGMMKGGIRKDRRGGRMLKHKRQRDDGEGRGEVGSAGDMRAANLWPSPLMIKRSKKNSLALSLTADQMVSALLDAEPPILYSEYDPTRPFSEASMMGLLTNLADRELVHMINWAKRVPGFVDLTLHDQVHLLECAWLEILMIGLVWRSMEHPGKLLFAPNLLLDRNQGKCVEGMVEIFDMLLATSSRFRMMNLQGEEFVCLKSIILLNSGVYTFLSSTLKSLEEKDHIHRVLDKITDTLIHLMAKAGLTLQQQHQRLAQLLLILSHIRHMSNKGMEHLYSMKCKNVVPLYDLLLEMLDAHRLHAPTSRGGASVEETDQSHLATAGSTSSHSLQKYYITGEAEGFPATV
Further: assay procedure not described here.

As a reminder, the AC50 is the concentration giving half of the maximal activity seen. High values mean activity only at high concentration, low ones activity at low concentration. For the compound `CN(C)CCc1c[nH]c2ccc(Cn3cncn3)cc12` [RIZATRIPTAN], the AC50 on B2 bradykinin receptor is more than 30 µM; in assay [1] it was more than 30 µM; in assay [2], more than 30 µM; in assay [3], 12 µM; in assay [4] it was more than 30 µM; in assay [5], more than 10 µM.
For `Nc1ccc(S(=O)(=O)Nc2nccs2)cc1` [SULFATHIAZOLE], the AC50 was more than 30 µM on B2 bradykinin receptor; more than 30 µM in assay [1]; more than 30 µM in assay [2]; more than 10 µM in assay [3]; more than 30 µM in assay [4]; more than 10 µM in assay [5].
Consider `CCN(CC)CCNC(=O)c1c(C)[nH]c(/C=C2\C(=O)Nc3ccc(F)cc32)c1C` [SUNITINIB], for which the AC50 amounted to 2.5 µM on B2 bradykinin receptor, 0.158 µM in assay [3], 5 µM in assay [4] and 5.2 µM in assay [5].
`COc1ccccc1Oc1c(NS(=O)(=O)c2ccc(C(C)(C)C)cc2)nc(-c2ncccn2)nc1OCCO` [BOSENTAN]: the concentration at half-maximal activity (AC50) on B2 bradykinin receptor is more than 30 µM; in assay [1], more than 30 µM; in assay [2] it was more than 30 µM; in assay [3] it was more than 10 µM; in assay [4], more than 30 µM; in assay [5], more than 10 µM.
Consider `C[C@H]1c2cccc(O)c2C(=O)C2=C(O)[C@]3(O)C(=O)C(C(N)=O)=C(O)[C@@H](N(C)C)[C@@H]3[C@@H](O)[C@@H]21` [DOXYCYCLINE], for which the AC50 at B2 bradykinin receptor was more than 30 µM; in assay [1], more than 30 µM; in assay [2], more than 30 µM; in assay [3], more than 10 µM; in assay [4], more than 30 µM; in assay [5], more than 10 µM.
As for `CC(C)N(CCC(C(N)=O)(c1ccccc1)c1ccccn1)C(C)C` (stereo not given) [DISOPYRAMIDE], the AC50 on B2 bradykinin receptor was more than 30 µM; in assay [1], 8.37 µM; in assay [2], more than 30 µM; in assay [4] it was more than 30 µM; in assay [5], more than 10 µM.
`COc1ccccc1OCCNCC(O)COc1cccc2[nH]c3ccccc3c12` (stereo not given) [CARVEDILOL]: the AC50 on B2 bradykinin receptor was more than 30 µM; in assay [2], more than 30 µM; in assay [3], 0.0101 µM; in assay [4], 31.7 µM; in assay [5], 0.532 µM.
Regarding `CCCN(CCC)C(=O)Cc1c(-c2ccc(Cl)cc2)nc2ccc(Cl)cn12` [ALPIDEM], the half-maximal activity concentration (AC50) is more than 10 µM in assay [6]; more than 30 µM on Estrogen receptor; more than 30 µM at B2 bradykinin receptor; more than 10 µM in assay [3]; more than 30 µM in assay [4]; more than 30 µM in assay [5].
For `C=CC[C@@H]1/C=C(\C)C[C@H](C)C[C@H](OC)[C@H]2O[C@@](O)(C(=O)C(=O)N3CCCC[C@H]3C(=O)O[C@H](/C(C)=C/[C@@H]3CC[C@@H](O)[C@H](OC)C3)[C@H](C)[C@@H](O)CC1=O)[C@H](C)C[C@@H]2OC` [TACROLIMUS ANHYDROUS], the concentration at half-maximal activity (AC50) was more than 30 µM at B2 bradykinin receptor; 12.2 µM in assay [1]; more than 30 µM in assay [2]; more than 10 µM in assay [3]; 7.49 µM and > 30 µM in assay [4]; 23 µM and 20 µM in assay [5].
For `CO[C@H]1/C=C/O[C@@]2(C)Oc3c(C)c(O)c4c(O)c(c(/C=N/N5CCN(C)CC5)c(O)c4c3C2=O)NC(=O)/C(C)=C\C=C\[C@H](C)[C@H](O)[C@@H](C)[C@@H](O)[C@@H](C)[C@H](OC(C)=O)[C@@H]1C` [RIFAMPIN], the AC50 is 18.6 µM on B2 bradykinin receptor; 32.6 µM in assay [1]; more than 30 µM in assay [2]; more than 10 µM in assay [3]; 12.4 µM in assay [4]; more than 30 µM in assay [5].
Turning to `C[C@@H](Oc1cc(-c2cnn(C3CCNCC3)c2)cnc1N)c1c(Cl)ccc(F)c1Cl` [CRIZOTINIB], the AC50 in assay [1] was 14.2 µM; in assay [3], 0.316 µM; in assay [4], more than 30 µM; in assay [5] it was 2.7 µM.
